These results are taken from paper PMC12154443, “Design, Synthesis, Anti-Tumor Activity and Molecular Docking Studies of Novel Triphenylphosphine-Containing Formononetin Derivatives” (International Journal of Molecular Sciences, 2025).

Each structure is given as a SMILES string. Like-named read-outs stand apart in the source and are kept apart here.

For series [1], the system named is human gastric cancer cells (HGC-27). The experiment in a line: MTT cell viability assay, HGC-27. It counts as cell-based. Conditions: 48 h, HGC-27 cells, read-out: half inhibitory concentration (IC50), HGC-27. The method, then:
(§1) The human embryonic kidney cells (HEK-293), human non-small-cell lung cancer (A549), human breast cancer cells (MCF-7), and human prostate cancer (PC-3M) cells used in this study were obtained from the Beijing BNCC Biotechnology Research Institute (Beijing, China), and human gastric cancer cells (HGC-27) were obtained from Dalian Meilun Biotechnology Co., Ltd. (Dalian, China).
(§2) The cell lines used in this study (A549, MCF-7, PC-3M, HGC-27, HEK-293) were removed from the CO2 incubator and seeded into 96-well plates at a density of 5 × 10^4/mL. Following a 24-h incubation period under standard CO2 conditions, we added […] of sample solutions at various concentrations ([…], 12.5, 25, 50, 100 μmol/L) to each well. Each concentration was tested in six replicates. The control group received 0.1% DMSO in serum-free medium (SFM). After 48 h of the drug effect, 10 µL of MTT solution was added to each well under light-avoidance conditions, and incubation was continued under light-avoidance conditions for 4 h; the supernatant was discarded, and 150 μL of DMSO was added to dissolve the resulting formazan crystals. After 10 min of shaking to ensure the complete dissolution and uniform color development of purple crystals, the absorbance (OD) was measured at 490 nm using a microplate reader.
(§3) The inhibition rate was calculated as: Inhibition rate (%) = [(OD value of control group-OD value of administered group)/(OD value of control group-OD value of zeroing group)] × 100%, where OD value of zeroing group represents the zeroing group.
(§4) The IC50 values of the drugs were calculated by fitting using GraphPad Prism v.6.01 (GraphPad Software, San Diego, CA, USA), and it was used as a criterion for selecting the appropriate drug concentration for subsequent experiments.

The subject of series [2] is human non-small-cell lung cancer (A549). The experiment in a line: MTT cell viability assay, A549. Conditions: A549 cells; for IC50: Homo sapiens, MTT, 48 h, read-out: half inhibitory concentration (IC50), A549; for increase in cytostatic effect relative to formononetin: from IC50 values. It counts as cell-based. As for the experimental part:
The human embryonic kidney cells (HEK-293), human non-small-cell lung cancer (A549), human breast cancer cells (MCF-7), and human prostate cancer (PC-3M) cells used in this study were obtained from the Beijing BNCC Biotechnology Research Institute (Beijing, China), and human gastric cancer cells (HGC-27) were obtained from Dalian Meilun Biotechnology Co., Ltd. (Dalian, China). […] Each concentration was tested in six replicates. The control group received 0.1% DMSO in serum-free medium (SFM). […] The inhibition rate was calculated as: Inhibition rate (%) = [(OD value of control group-OD value of administered group)/(OD value of control group-OD value of zeroing group)] × 100%, where OD value of zeroing group represents the zeroing group.

Series [3] relates to human embryonic kidney cells (HEK-293). Briefly: MTT cell viability assay, normal HEK-293 cells. Conditions: HEK293, 48 h, read-out: half inhibitory concentration (IC50), HEK-293. Type of series: cell-based. The method, then: as §1, §2, §3, §4
The test system of series [4] is human breast cancer cells (MCF-7). The experiment in a line: MTT cell viability assay, MCF-7. It counts as cell-based. As for the experimental part: as §1, §2, §3, §4
(In general: Formazan colour is commonly taken as a measure of viable cells.)

Series [5] has as its system human prostate cancer (PC-3M) cells. Briefly: MTT cell viability assay, PC-3M. It counts as cell-based. Conditions: 48 h, read-out: half inhibitory concentration (IC50), PC-3M. As for the experimental part:
as §1, §2, §3, §4

Series [6] is described as follows: Solubility observed during the experimental process. The conditions noted are these: room temperature, formononetin in water, methanol, ethanol, acetone, tetrahydrofuran, ethyl acetate, dichloromethane, chloroform, derivatives in acetate. Type of series: physicochemical. The method, then:
Therefore, using procedures reported in the previous studies, we employed a molar ratio of 1:3 between the intermediate and triphenylphosphine. […] For the synthesis of fatty acid esters, dichloromethane was employed as the reaction solvent, and a 1.5-fold molar excess of the corresponding acid was added. The reaction was conducted over a 1–4 h period, which enabled the complete conversion of formononetin and maximum yield. […] The introduction of triphenylphosphine […].

Setting [7] is: MCF7, 48 h, MCF-7 cells, read-out: half inhibitory concentration (IC50), MCF-7.
Where [8] appears, read: MCF7, MCF-7 cells, read-out: IC50 against MCF-7 cells.

Consider `CCCCCCCC(=O)Oc1ccc2c(=O)c(-c3ccc(OC)cc3)coc2c1` [3c, 7-O-octanoyl-formononetin], for which the IC50 in series [1] was determined as 60 ± 7.82 µM; in series [2], 83 ± 5.89 µM.

In the case of `COc1ccc(-c2coc3cc(OC(=O)CCCCCCBr)ccc3c2=O)cc1` [1b, 7-O-(7-bromoheptanoyl)-formononetin], the IC50 was 79.1 ± 5.65 µM in series [1] and 70.7 ± 5.61 µM in series [3].

For the compound `COc1cccc2c1C(=O)c1c(O)c3c(c(O)c1C2=O)C[C@@](O)(C(=O)CO)C[C@@H]3O[C@H]1C[C@H](N)[C@H](O)[C@H](C)O1` [DOX, doxorubicin, reference compound], the IC50 is 13.2 ± 0.43 µM in series [4] (setting [7]), 0.168 ± 0.06 µM in series [5], 5.97 ± 0.43 µM in series [1] and 15.4 ± 1.06 µM in series [2].

On to `COc1ccc(-c2coc3cc(OC(=O)CCCCCCCCBr)ccc3c2=O)cc1` [1d, 7-O-(9-bromononanoi)-formononetin], for which the results for the IC50 in series [1], in series [3] and in series [2] were 79.2 ± 9.27 µM, 74.4 ± 4.28 µM and 86.2 ± 6.1 µM, respectively.

As to `CCCCCCCCCCCC(=O)Oc1ccc2c(=O)c(-c3ccc(OC)cc3)coc2c1` [3g, 7-O-dodecanoyl-formononetin], the IC50 in series [4] (setting [7]) came to 67.8 ± 8.92 µM; in series [5], 50.4 ± 5.78 µM; in series [3] it was 50.4 ± 6.13 µM; in series [2], 66.9 ± 9.7 µM.

Take `COc1ccc(-c2coc3cc(OC(=O)CCCCCCCBr)ccc3c2=O)cc1` [1c, 7-O-(8-bromooctanoyl)-formononetin]: the figures for the IC50 in series [1], in series [3] and in series [2] were 31.4 ± 4.93 µM, 68 ± 5.33 µM and greater than 100 µM, respectively.

`COc1ccc(-c2coc3cc(OC(=O)CCCCCCCCCCBr)ccc3c2=O)cc1` [1f, 7-O-(11-bromoundecanoyl)-formononetin]: the IC50 in series [1] came out at 55.6 ± 2.43 µM; in series [3], 95.7 ± 8.09 µM; in series [2] it was 74.6 ± 11.4 µM.

Turning to `CCCCCCCCC(=O)Oc1ccc2c(=O)c(-c3ccc(OC)cc3)coc2c1` [3d, 7-O-nonanoyl-formononetin], the IC50 in series [5] came out at 58.3 ± 5.36 µM; in series [1] it was 80.2 ± 4.8 µM; in series [3], 78.3 ± 9.74 µM; in series [2], 78.1 ± 6.21 µM.

On to `O=c1[nH]cc(F)c(=O)[nH]1` [5-FU, 5-fluorouracil, reference compound], for which the IC50 in series [4] (setting [8]) was greater than 100 µM; in series [5] it was 48.1 ± 3.76 µM; in series [1], 36.2 ± 3.02 µM; in series [3] it was greater than 100 µM; in series [2], 22.9 ± 3.54 µM.

On to `COc1ccc(-c2coc3cc(OC(=O)CCCCCBr)ccc3c2=O)cc1` [1a, 7-O-(6-bromohexanoyl)-formononetin], for which the results for the IC50 in series [1] and in series [3] were 83.3 ± 8.32 µM and 83.4 ± 8.61 µM, respectively.

In the case of `COc1ccc(-c2coc3cc(OC(=O)CCCCC[P+](c4ccccc4)(c4ccccc4)c4ccccc4)ccc3c2=O)cc1` [2a, 7-O-(6-bromohexanoyl)-formononetin-triphenylphosphine coupling], the IC50 in series [4] (setting [7]) amounted to 72.8 ± 6.25 µM; in series [5] it was 55.2 ± 4.4 µM; in series [1], 13.4 ± 2.77 µM; in series [3], 44.8 ± 2.39 µM; in series [2], 28.8 ± 2.45 µM.

For `CCCCCCCCCC(=O)Oc1ccc2c(=O)c(-c3ccc(OC)cc3)coc2c1` [3e, 7-O-n-decanoyl-formononetin], the results for the IC50 in series [1] and in series [2] were 48.6 ± 5.3 µM and 74 ± 11.9 µM, respectively.

Regarding `COc1ccc(-c2coc3cc(OC(=O)CCCCCC[P+](c4ccccc4)(c4ccccc4)c4ccccc4)ccc3c2=O)cc1` [2b, 7-O-(7-bromoheptanoyl)-formononetin-triphenylphosphine coupling], the IC50 in series [4] (setting [7]) was found to be 46.5 ± 4.94 µM; in series [5], 69.2 ± 3.98 µM; in series [1], 32.1 ± 5.96 µM; in series [3] it was 46.2 ± 3.99 µM; in series [2], 42.2 ± 3.69 µM.

`COc1ccc(-c2coc3cc(OC(=O)CCCCCCC[P+](c4ccccc4)(c4ccccc4)c4ccccc4)ccc3c2=O)cc1` [2c, 7-O-(8-bromooctanoyl)-formononetin-triphenylphosphine coupling]: the IC50 is 42.6 ± 9.44 µM in series [4] (setting [7]); 21.7 ± 1.25 µM in series [5]; 18.6 ± 1.6 µM in series [1]; 77 ± 8.26 µM in series [3]; 12.2 ± 1.52 µM in series [2]. Besides, in series [2], the “increase in cytostatic effect relative to formononetin” value is listed as roughly 7 fold.

Take `CCCCCCCCCCC(=O)Oc1ccc2c(=O)c(-c3ccc(OC)cc3)coc2c1` [3f, 7-O-undecanoyl-formononetin]: the IC50 amounted to 85 ± 5.74 µM in series [4] (setting [7]); 46.7 ± 9.24 µM in series [5]; 45.4 ± 5.24 µM in series [1]; 75 ± 5.49 µM in series [3]; 70.1 ± 9.67 µM in series [2].

With `COc1ccc(-c2coc3cc(OC(=O)CCCCCCCC[P+](c4ccccc4)(c4ccccc4)c4ccccc4)ccc3c2=O)cc1` [2d, 7-O-(9-bromononanoyl)-formononetin-triphenylphosphine coupling], the IC50 is 56.8 ± 4.04 µM in series [4] (setting [7]); 67 ± 6.97 µM in series [5]; 29.1 ± 2.58 µM in series [1]; 47 ± 8.41 µM in series [3]; 31.2 ± 4.4 µM in series [2].

As for `COc1ccc(-c2coc3cc(OC(=O)CCCCCCCCCBr)ccc3c2=O)cc1` [1e, 7-O-(10-bromodecanoyl)-formononetin], the IC50 in series [5] is 84 ± 11 µM; in series [1] it was 66.1 ± 7.33 µM; in series [3], 95.1 ± 7.97 µM; in series [2], 65.4 ± 5.01 µM.

As for `COc1ccc(-c2coc3cc(OC(=O)CCCCCCCCCCCBr)ccc3c2=O)cc1` [1g, 7-O-(12-bromododecanoyl)-formononetin], the IC50 is greater than 100 µM in series [5], 95.5 ± 6.23 µM in series [1], 59.9 ± 7.79 µM in series [3] and 53.6 ± 5.15 µM in series [2].

In the case of `CCCCCC(=O)Oc1ccc2c(=O)c(-c3ccc(OC)cc3)coc2c1` [3a, 7-O-hexanoyl-formononetin], the IC50 in series [5] is 62 ± 8.71 µM; in series [1], 49.5 ± 3.35 µM.

Turning to `COc1ccc(-c2coc3cc(OC(=O)CCCCCCCCCC[P+](c4ccccc4)(c4ccccc4)c4ccccc4)ccc3c2=O)cc1` [2f, 7-O-(11-bromoundecanoyl)-formononetin-triphenylphosphine coupling], the IC50 came to 52.3 ± 6.85 µM in series [4] (setting [7]); 27.9 ± 2.69 µM in series [5]; 30.4 ± 2.12 µM in series [1]; 51.7 ± 5.48 µM in series [3]; 20.6 ± 1.21 µM in series [2]. Moreover, in series [2], the “increase in cytostatic effect relative to formononetin” value is listed as roughly 7 fold.

Regarding `COc1ccc(-c2coc3cc(OC(=O)CCCCCCCCC[P+](c4ccccc4)(c4ccccc4)c4ccccc4)ccc3c2=O)cc1` [2e, 7-O-(10-bromodecanoyl)-formononetin-triphenylphosphine coupling], the IC50 in series [4] (setting [7]) is 85.5 ± 4.99 µM; in series [5] it was 97.9 ± 6.33 µM; in series [1], 39.2 ± 2.68 µM; in series [3], 64 ± 3.47 µM; in series [2], 39 ± 1.65 µM.

As for `CCCCCCC(=O)Oc1ccc2c(=O)c(-c3ccc(OC)cc3)coc2c1` [3b], the IC50 in series [1] is 65.4 ± 3.88 µM; in series [2] it was 96.4 ± 7.37 µM.

As for `COc1ccc(-c2coc3cc(OC(=O)CCCCCCCCCCC[P+](c4ccccc4)(c4ccccc4)c4ccccc4)ccc3c2=O)cc1` [2g, 7-O-(12-bromododecanoyl)-formononetin-triphenylphosphine coupling], the IC50 in series [4] (setting [7]) was determined as 46.6 ± 4.95 µM; in series [5], 41.2 ± 4.4 µM; in series [1], 29.4 ± 2.52 µM; in series [3], 59.6 ± 5.65 µM; in series [2] it was 23.6 ± 2.25 µM. Moreover, in series [2], the “increase in cytostatic effect relative to formononetin” value was roughly 7 fold.

`COc1ccc(-c2coc3cc(O)ccc3c2=O)cc1` [FMN, formononetin]: the IC50 in series [4] (setting [8]) was greater than 100 µM; in series [5], 76.4 ± 6.47 µM; in series [1] it was 29.6 ± 1.17 µM; in series [3] it was 39.6 ± 3.26 µM; in series [2], 83 ± 6.25 µM. The “solubility (observation)” value in series [6] was “almost no solubility”.
